# Read-outs that look alike come from different tables or passages of the source.
# Legend:
# Assay in all cases: Postemergence foliar-applied herbicidal activity in direct seeded rice (Example 16)
# Assay type in all cases: in vivo
# [1] = tested on: Brachiaria platyphylla (GRISEB.) NASH (broadleaf signalgrass); conditions: BRAPP, probit analysis; for GR50: 50% growth reduction; for GR80: 80% growth reduction; for GR90: 90% growth reduction
# How it was run: (§1)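 Greenhouse plants at 2nd–3rd true leaf stage (10–17 d, ~29/26 °C, 14-h photoperiod) sprayed postemergence with ester forms in acetone–DMSO plus 1.25% crop oil concentrate at 187 L/ha. Visual injury scored 0–100% versus untreated plants after 3 weeks; GR50/GR80 derived by probit analysis.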
# [2] = tested on: Cyperus difformis L. (small-flower flatsedge); conditions: post-emergence, 504 h, read-out: Visual Injury (%) CYPDI
# How it was run: as §1
# [3] = tested on: Echinochloa crus-galli (L.) P.BEAUV. (barnyardgrass); conditions: ECHCG, probit analysis; for GR50: 50% growth reduction; for GR80: 80% growth reduction; for GR90: 90% growth reduction
# How it was run: as §1
# [4] = tested on: Polygonum pensylvanicum L. (Pennsylvania smartweed); conditions: POLPY, probit analysis; for GR50: 50% growth reduction; for GR80: 80% growth reduction; for GR90: 90% growth reduction
# How it was run: as §1
# [5] = tested on: Scirpus juncoides ROXB. (Japanese bulrush); conditions: Schoenoplectiella juncoides, post-emergence, 504 h, read-out: Visual Injury (%) SCPJU
# How it was run: as §1
# [6] = tested on: Cyperus iria L. (rice flatsedge); conditions: rice cropping systems, 8.75 g ae/ha, 21 DAA, may represent multiple trials
# How it was run: as §1
# [7] = rice cropping systems, foliar-applied, 8.75 g ae/ha, 21 DAA, may represent multiple trials
SMILES,GR50 [1] [g ae/ha],GR80 [1] [g ae/ha],GR90 [1] [g ae/ha],"pest or weed control at 8.75 g/ha [2, 7] [%]",GR50 [3] [g ae/ha],GR80 [3] [g ae/ha],GR90 [3] [g ae/ha],GR50 [4] [g ae/ha],GR80 [4] [g ae/ha],GR90 [4] [g ae/ha],"pest or weed control at 8.75 g/ha [5, 7] [%]",Visual Injury (%) CYPIR [6] [%],pest or weed control at 8.75 g/ha [2] [%],pest or weed control at 8.75 g/ha [5] [%]
"COC(=O)c1nc(-c2ccc(Cl)c(OC)c2F)c(F)c(N)c1Cl [E, methyl 4-amino-3-chloro-6-(4-chloro-2-fluoro-3-methoxyphenyl)-5-fluoropicolinate, reference compound]",<4.38,22.7,84.3,89,3.7,17.1,38.1,30.7,>70,>70,61,–,–,–
"COC(=O)c1nc(-c2ccc(C3CC3)cc2)c(F)c(N)c1Cl [Compound B, methyl 4-amino-3-chloro-6-(4-cyclopropylphenyl)-5-fluoropicolinate]",–,–,–,–,–,–,–,–,–,–,–,60,–,–
"Nc1c(F)c(-c2ccc(C3CC3)cc2)nc(C(=O)OCc2ccccc2)c1Cl [Compound 42, benzyl 4-amino-3-chloro-6-(4-cyclopropylphenyl)-5-fluoropicolinate]",–,–,–,–,–,–,–,–,–,–,–,100,–,–
"COc1c(Cl)ccc(-c2nc(C(=O)OCc3ccccc3)c(Cl)c(N)c2F)c1F [Compound 1, benzyl 4-amino-3-chloro-6-(4-chloro-2-fluoro-3-methoxyphenyl)-5-fluoropicolinate]",<4.38,9.9,26.0,–,<4.38,<4.38,6.1,<8.75,19.7,46.7,–,–,100,93

# From patent publication US9169217B2, “Arylalkyl esters of 4-amino-6-(substituted phenyl)-picolinates and 6-amino-2-(substituted phenyl)-pyrimidinecarboxylates and their use as selective herbicides for crops” (Dow AgroSciences LLC, priority 2011, dated 2015)
